Among the data in patent US8697739B2, “Bicyclic acetyl-CoA carboxylase inhibitors and uses thereof” (Novartis AG, priority 2010, dated 2014) are IC50 values, retold here.

The IC50 is the concentration needed to halve the response being measured.

T1 sequence (O00763 144-2458): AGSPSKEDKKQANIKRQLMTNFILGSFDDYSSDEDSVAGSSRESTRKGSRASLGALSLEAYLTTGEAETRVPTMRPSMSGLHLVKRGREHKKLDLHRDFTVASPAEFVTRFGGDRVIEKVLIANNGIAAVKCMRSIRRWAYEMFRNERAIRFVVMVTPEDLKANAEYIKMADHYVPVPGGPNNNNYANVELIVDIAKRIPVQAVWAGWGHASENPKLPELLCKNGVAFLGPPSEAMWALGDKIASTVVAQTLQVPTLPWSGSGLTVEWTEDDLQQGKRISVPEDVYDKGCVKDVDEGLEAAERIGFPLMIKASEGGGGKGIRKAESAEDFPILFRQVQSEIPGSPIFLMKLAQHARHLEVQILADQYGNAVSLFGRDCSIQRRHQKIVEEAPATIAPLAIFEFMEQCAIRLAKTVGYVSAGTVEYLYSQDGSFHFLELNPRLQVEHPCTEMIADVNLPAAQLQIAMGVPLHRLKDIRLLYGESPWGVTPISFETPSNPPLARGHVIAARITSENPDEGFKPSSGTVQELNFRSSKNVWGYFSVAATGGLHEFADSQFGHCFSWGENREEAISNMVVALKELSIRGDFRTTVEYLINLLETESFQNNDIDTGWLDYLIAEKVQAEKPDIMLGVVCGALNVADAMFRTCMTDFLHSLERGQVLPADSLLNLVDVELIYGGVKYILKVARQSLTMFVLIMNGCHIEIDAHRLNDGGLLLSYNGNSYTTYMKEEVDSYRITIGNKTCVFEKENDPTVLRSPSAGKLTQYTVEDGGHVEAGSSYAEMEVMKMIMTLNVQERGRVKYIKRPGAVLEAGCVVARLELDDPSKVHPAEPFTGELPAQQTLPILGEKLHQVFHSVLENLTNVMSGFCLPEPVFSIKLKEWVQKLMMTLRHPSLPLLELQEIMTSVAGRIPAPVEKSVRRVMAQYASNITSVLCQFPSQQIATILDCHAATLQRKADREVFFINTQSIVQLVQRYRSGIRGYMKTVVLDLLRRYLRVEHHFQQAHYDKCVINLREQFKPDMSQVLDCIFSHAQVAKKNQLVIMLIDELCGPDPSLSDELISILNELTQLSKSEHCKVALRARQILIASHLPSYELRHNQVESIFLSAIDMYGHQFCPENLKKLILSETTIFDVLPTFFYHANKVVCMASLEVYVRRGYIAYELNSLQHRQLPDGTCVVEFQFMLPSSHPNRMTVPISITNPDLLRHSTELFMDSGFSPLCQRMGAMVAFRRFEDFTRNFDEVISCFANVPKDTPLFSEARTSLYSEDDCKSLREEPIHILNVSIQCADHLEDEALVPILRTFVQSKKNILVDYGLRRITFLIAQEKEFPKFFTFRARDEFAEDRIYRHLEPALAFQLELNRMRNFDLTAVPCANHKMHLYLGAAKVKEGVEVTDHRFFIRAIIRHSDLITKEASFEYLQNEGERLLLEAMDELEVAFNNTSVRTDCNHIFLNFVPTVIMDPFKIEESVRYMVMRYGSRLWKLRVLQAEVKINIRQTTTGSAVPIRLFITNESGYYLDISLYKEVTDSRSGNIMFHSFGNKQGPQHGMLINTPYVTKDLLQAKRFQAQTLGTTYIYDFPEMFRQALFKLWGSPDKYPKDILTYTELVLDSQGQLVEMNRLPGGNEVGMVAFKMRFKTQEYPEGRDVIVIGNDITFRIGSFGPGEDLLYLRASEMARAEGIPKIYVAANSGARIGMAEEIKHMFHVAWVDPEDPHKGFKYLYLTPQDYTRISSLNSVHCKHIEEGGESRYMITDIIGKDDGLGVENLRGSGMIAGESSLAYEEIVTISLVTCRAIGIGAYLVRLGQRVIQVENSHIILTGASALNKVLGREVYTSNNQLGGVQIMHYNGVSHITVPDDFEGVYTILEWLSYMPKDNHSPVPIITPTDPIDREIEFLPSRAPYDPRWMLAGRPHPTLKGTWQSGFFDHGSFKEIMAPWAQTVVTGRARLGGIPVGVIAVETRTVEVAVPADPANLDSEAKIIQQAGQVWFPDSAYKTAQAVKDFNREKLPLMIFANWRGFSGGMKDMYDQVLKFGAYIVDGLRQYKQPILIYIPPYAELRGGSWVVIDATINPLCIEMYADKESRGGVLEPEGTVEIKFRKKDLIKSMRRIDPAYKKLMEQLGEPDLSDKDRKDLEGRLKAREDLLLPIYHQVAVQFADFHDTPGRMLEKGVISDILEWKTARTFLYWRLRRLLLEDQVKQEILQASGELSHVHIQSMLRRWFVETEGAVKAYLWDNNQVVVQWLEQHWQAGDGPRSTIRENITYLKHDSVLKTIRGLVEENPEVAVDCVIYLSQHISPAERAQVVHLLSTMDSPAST

This experiment has as its target T1, human acetyl-CoA carboxylase 2 (ACC2) (Homo sapiens, UniProt O00763).
T1 construct: The cDNA encoding amino acids 144 to 2458 of human acetyl-CoA carboxylase 2; made in house; host or cells: Sf9 insect cells (baculovirus, pFastBac1)
Nature of the experiment: Acetyl-CoA carboxylase enzyme assay (malonyl-CoA formation by LC/MS/MS). It counts as biochemical. The note with it: recombinant human ACC2 (aa 144-2458); read-out: IC50 ACC2. Put shortly: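 Malonyl-CoA formation was read by LC/MS/MS MRM against a [13C3]-malonyl-CoA internal standard, after acetic acid quench. The enzyme was baculovirus/Sf9-expressed human ACC2 residues 144–2458, given 15 minutes room-temperature compound preincubation in HEPES pH 7.5 buffer with MgCl2, citrate and DTT. Substrate solution held 50 μM acetyl-CoA, 120 μM ATP and 2 mM KHCO3.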
On to `COC1CCN(C(=O)[C@H]2CC[C@H](NS(=O)(=O)c3ccc4[nH]c(-c5ccccc5)nc4c3)CC2)CC1` [Example 669, N-((1r,4r)-4-(4-methoxypiperidine-1-carbonyl)cyclohexyl)-2-phenyl-1H-benzo[d]imidazole-5-sulfonamide], for which the IC50 was determined as 362 nM.

Turning to `C[C@@H](NC(=O)[C@H]1CC[C@H](NS(=O)(=O)c2cnc3nc(-c4ccccc4)sc3c2)CC1)c1ccc(F)cc1` [Example 52, (1r,4R)-N-((R)-1-(4-fluorophenyl)ethyl)-4-(2-phenylthiazolo[4,5-b]pyridine-6-sulfonamido)cyclohexanecarboxamide], the IC50 was found to be 435 nM. Turning to `Cc1ccccc1-c1cc2ccc(S(=O)(=O)N[C@H]3CC[C@H](C(=O)N4CCNC(C(F)(F)F)C4)CC3)cc2[nH]1` (some centres unmarked) [Example 320, 2-o-tolyl-N-((1r,4r)-4-(3-(trifluoromethyl)piperazine-1-carbonyl)cyclohexyl)-1H-indole-6-sulfonamide], the IC50 turned out to be 85 nM.

For `COc1ccc(-c2cc3ccc(S(=O)(=O)N[C@H]4CC[C@H](C(=O)N5CCOC[C@@H]5C(C)C)CC4)cc3n2C)cc1` [Example 441, N-((1S,4r)-4-((S)-3-isopropylmorpholine-4-carbonyl)cyclohexyl)-2-(4-methoxyphenyl)-1-methyl-1H-indole-6-sulfonamide], the IC50 was less than 10 nM. `CCOc1ccc2cc(S(=O)(=O)N[C@H]3CC[C@H](C(=O)N[C@H](C)c4ccccn4)CC3)ccc2n1` [Example 82, (1r,4R)-4-(2-ethoxyquinoline-6-sulfonamido)-N-((R)-1-(pyridin-2-yl)ethyl)cyclohexanecarboxamide]: the IC50 came to 845 nM.

`COCCNc1ccc2cc(S(=O)(=O)N[C@H]3CC[C@H](C(=O)N[C@H](C)c4ccc(F)cc4)CC3)ccc2n1` [Example 201, (1r,4R)-N-((R)-1-(4-fluorophenyl)ethyl)-4-(2-(2-methoxyethylamino)quinoline-6-sulfonamido)cyclohexanecarboxamide]: the concentration for half-maximal inhibition (IC50) was 80 nM. The figure for `CC(C)OC(=O)c1ccc(NS(=O)(=O)c2ccc3[nH]c(Nc4ccc(-n5cccn5)cc4)nc3c2)cc1` [Example 545, isopropyl 4-(2-(4-(1H-pyrazol-1-yl)phenylamino)-1H-benzo[d]imidazole-5-sulfonamido)benzoate] is 623 nM; for `Cn1ccc2cc(S(=O)(=O)N[C@H]3CC[C@H](C(=O)N[C@H](CCO)c4ccccc4)CC3)ccc21` [Example 673, (1r,4R)-N-((R)-3-hydroxy-1-phenylpropyl)-4-(1-methyl-1H-indole-5-sulfonamido)cyclohexanecarboxamide] it is 138 nM; for `C[C@@H](NC(=O)[C@H]1CC[C@H](NS(=O)(=O)c2ccc3c(c2)CCC(C)(C)O3)CC1)c1ccc(F)cc1` [Example 144, (1r,4R)-4-(2,2-dimethylchroman-6-sulfonamido)-N-((R)-1-(4-fluorophenyl)ethyl)cyclohexanecarboxamide] it is 314 nM.

`C[C@@H](NC(=O)[C@H]1CC[C@H](NS(=O)(=O)c2cnc3ccccc3c2)CC1)c1ccccc1C(F)(F)F` [Example 46, (1r,4R)-4-(quinoline-3-sulfonamido)-N-((R)-1-(2-(trifluoromethyl)phenyl)ethyl)cyclohexanecarboxamide]: the IC50 came to 9040 nM.

As for `CC(C)c1nnc([C@H]2CC[C@H](NS(=O)(=O)c3ccc4[nH]c(Nc5ccccc5)nc4c3)CC2)o1` [Example 595, N-((1r,4r)-4-(5-isopropyl-1,3,4-oxadiazol-2-yl)cyclohexyl)-2-(phenylamino)-1H-benzo[d]imidazole-5-sulfonamide], the IC50 is 259 nM. Next, `Cn1c(-c2ccccc2)cc2ccc(S(=O)(=O)N[C@H]3CC[C@H](C(=O)N4CCNC(C(F)(F)F)C4)CC3)cc21` (some centres unmarked) [Example 324, 1-methyl-2-phenyl-N-((1r,4r)-4-(3-(trifluoromethyl)piperazine-1-carbonyl)cyclohexyl)-1H-indole-6-sulfonamide]: 40 nM; `O=C(NCC1CC1)[C@H]1CC[C@H](NS(=O)(=O)c2ccc3[nH]c(-c4ccccc4)nc3c2)CC1` [Example 637, (1r,4r)-N-(cyclopropylmethyl)-4-(2-phenyl-1H-benzo[d]imidazole-5-sulfonamido)cyclohexanecarboxamide]: 372 nM; `O=C([C@H]1CC[C@H](NS(=O)(=O)c2cnc3ccccc3c2)CC1)N1CCNCC1c1ccccc1` (some centres unmarked) [Example 61, N-((1r,4r)-4-(2-phenylpiperazine-1-carbonyl)cyclohexyl)quinoline-3-sulfonamide]: 98 nM. As to `C[C@@H](NC(=O)[C@H]1CC[C@H](NC(=O)c2ccc3cc(-c4ccccc4)[nH]c3c2)CC1)c1ccc(F)cc1` [Example 115, N-((1R,4r)-4-((R)-1-(4-fluorophenyl)ethylcarbamoyl)cyclohexyl)-2-phenyl-1H-indole-6-carboxamide], the 50% inhibitory concentration (IC50) came out at 29100 nM. On to `COC(=O)[C@@H](NC(=O)[C@H]1CC[C@H](NS(=O)(=O)c2ccc3cc(-c4ccccc4)n(C)c3c2)CC1)c1ccccc1` [Example 351, (S)-methyl 2-((1r,4S)-4-(1-methyl-2-phenyl-1H-indole-6-sulfonamido)cyclohexanecarboxamido)-2-phenylacetate], for which the IC50 was 95 nM. Turning to `COc1ccc(-c2cc3ccc(S(=O)(=O)N[C@H]4CC[C@H](C(=O)N5CCOC[C@@H]5C5CC5)CC4)cc3n2C)cc1` [Example 454, N-((1S,4r)-4-((S)-3-cyclopropylmorpholine-4-carbonyl)cyclohexyl)-2-(4-methoxyphenyl)-1-methyl-1H-indole-6-sulfonamide], the IC50 was less than 10 nM. For the molecule `CC(NC(=O)[C@H]1CC[C@H](NS(=O)(=O)c2cnc3ccccc3c2)CC1)c1cccc(F)c1` (some centres unmarked) [Example 44, (1r,4r)-N-(1-(3-fluorophenyl)ethyl)-4-(quinoline-3-sulfonamido)cyclohexanecarboxamide], the IC50 stood at 450 nM. Next, `CCOc1ccc2cc(S(=O)(=O)N[C@H]3CC[C@H](C(=O)N[C@H](C)c4ccc(F)cc4)CC3)ccc2n1` [Example 36, (1r,4R)-4-(2-ethoxyquinoline-6-sulfonamido)-N—((R)-1-(4-fluorophenyl)ethyl)cyclohexanecarboxamide]: 50 nM. On to `CC(C)OC(=O)c1ccc(NS(=O)(=O)c2ccc3[nH]c(Nc4ccc(F)cc4)nc3c2)cc1` [Example 522, isopropyl 4-(2-(4-fluorophenylamino)-1H-benzo[d]imidazole-5-sulfonamido)benzoate], for which the IC50 was 320 nM. Take `C[C@@H](NC(=O)[C@H]1CC[C@H](NS(=O)(=O)c2ccc3c(c2)CCC3)CC1)c1ccc(F)cc1` [Example 119, (1r,4R)-4-(2,3-dihydro-1H-indene-5-sulfonamido)-N-((R)-1-(4-fluorophenyl)ethyl)cyclohexanecarboxamide]: the IC50 came out at 161 nM. Take `Cc1cc(CO)ccc1-c1cc2ccc(S(=O)(=O)N[C@H]3CC[C@H](C(=O)N4CCNCC4)CC3)cc2[nH]1` [Example 312, 2-(4-(hydroxymethyl)-2-methylphenyl)-N-((1r,4r)-4-(piperazine-1-carbonyl)cyclohexyl)-1H-indole-6-sulfonamide]: the IC50 is 599 nM.

For `COCCc1ccc(-c2cc3ccc(S(=O)(=O)N[C@H]4CC[C@H](C(=O)N5CCOC[C@@H]5C(C)C)CC4)cc3[nH]2)cc1` [Example 460, N-((1S,4r)-4-((S)-3-isopropylmorpholine-4-carbonyl)cyclohexyl)-2-(4-(2-methoxyethyl)phenyl)-1H-indole-6-sulfonamide], the IC50 was less than 10 nM.
